Measurements: patent US20220235064A1 (WELLMARKER BIO CO., LTD., priority 2019, published 2022)

Tests used:
[1] = system: cancer cell line KM12C, in which RON is activated; assay: Cell-killing efficacy in RON-activated cancer cell line (trypan blue); type: cell-based
Summary of the method: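 KM12C cells seeded 1×10^5 per 60 mm^2 dish in MEM + 10% FBS, then exposed 24 h later to compound at 1 μM or 5 μM for 48 h.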

RON tyrosine kinase = target: T1, RON tyrosine kinase (Homo sapiens, UniProt Q04912); assay: Enzyme inhibitory activity against RON tyrosine kinase (TR-FRET); type: biochemical; conditions: RON (Carna Bioscience)
T1 construct: purchased Carna Bioscience
Summary of the method: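 Recombinant RON was preincubated with compound for 15 min at RT in 50 mM HEPES pH 7.5, 10 mM MgCl2, 1 mM EGTA, 2 mM DTT, 0.01% Tween-20. Enzyme (0.4 nM), ATP (60 μM) and tyrosine peptide (400 nM) were prepared at 2×, 4× and 4× final. After 60 min at RT, EDTA/Eu-anti-phosphotyrosine stop; IC50 from 665 nm TR-FRET emission.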

[2] = system: cancer cell line HT29, in which mutated RON (Δ160) is expressed; assay: Cell-killing efficacy in RON-mutated cancer cell line HT29 (trypan blue); type: cell-based
Method: (§1) Experimental Example 4: Measurement of Cell-Killing Efficacy of Example Compounds in RON-Mutated Cancer Cell Lines
(§2) Each of two colorectal cancer cell lines, that is, the cancer cell line HT29 (30038, KCLB, RPMI+10% FBS), in which mutated RON (Δ160) is expressed, and the cancer cell line SW620 (CCL-227, ATCC, RPMI+10% FBS), in which mutated RON (Δ155) is expressed, was dispensed into each 60 mm^2 dish at 1×10^5 cells. After 24 hours, the dish was treated with each of the example compounds at a concentration of 1 μM or 5 μM while performing medium exchange, and then reaction was allowed to proceed for 48 hours. After 48 hours, centrifugation was performed for 4 minutes at 1,500 rpm to collect cells and cell fluid. Thereafter, living cells and dead cells were quantified (n=2) using a trypan blue solution (15250-061, Gibco), and statistical analysis was performed using Excel-T-test. Here, as a negative control, only a solvent (0.10% DMSO) was used; and as a positive control, N-(4-(2-amino-3-chloropyridin-4-yloxy)-3-fluorophenyl)-4-ethoxy-1-(4-fluorophenyl)-2-oxo-1,2-dihydropyridine-3-carboxamide, which is the compound of Example 1 in WO 2008/058229 A1, was used.

[3] = system: cancer cell line SW620, in which mutated RON (Δ155) is expressed; assay: Cell-killing efficacy in RON-mutated cancer cell line SW620 (trypan blue); type: cell-based
Method: as §1, §2

[4] = system: cancer cell line KM12C, in which RON is activated; assay: Cell growth inhibitory ability in RON-activated cancer cell line (MTS); type: cell-based; conditions: Homo sapiens, 48 hours, absorbance 490 nm
Summary of the method: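 KM12C cells (RON-activated, MEM with FBS) exposed to compound […] for 48 h. MTS added 24 h after treatment ended, incubated 4 h at 37° C, absorbance read at 490 nm. IC50 derived from absorbance.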

T1 sequence (Q04912 25-1400): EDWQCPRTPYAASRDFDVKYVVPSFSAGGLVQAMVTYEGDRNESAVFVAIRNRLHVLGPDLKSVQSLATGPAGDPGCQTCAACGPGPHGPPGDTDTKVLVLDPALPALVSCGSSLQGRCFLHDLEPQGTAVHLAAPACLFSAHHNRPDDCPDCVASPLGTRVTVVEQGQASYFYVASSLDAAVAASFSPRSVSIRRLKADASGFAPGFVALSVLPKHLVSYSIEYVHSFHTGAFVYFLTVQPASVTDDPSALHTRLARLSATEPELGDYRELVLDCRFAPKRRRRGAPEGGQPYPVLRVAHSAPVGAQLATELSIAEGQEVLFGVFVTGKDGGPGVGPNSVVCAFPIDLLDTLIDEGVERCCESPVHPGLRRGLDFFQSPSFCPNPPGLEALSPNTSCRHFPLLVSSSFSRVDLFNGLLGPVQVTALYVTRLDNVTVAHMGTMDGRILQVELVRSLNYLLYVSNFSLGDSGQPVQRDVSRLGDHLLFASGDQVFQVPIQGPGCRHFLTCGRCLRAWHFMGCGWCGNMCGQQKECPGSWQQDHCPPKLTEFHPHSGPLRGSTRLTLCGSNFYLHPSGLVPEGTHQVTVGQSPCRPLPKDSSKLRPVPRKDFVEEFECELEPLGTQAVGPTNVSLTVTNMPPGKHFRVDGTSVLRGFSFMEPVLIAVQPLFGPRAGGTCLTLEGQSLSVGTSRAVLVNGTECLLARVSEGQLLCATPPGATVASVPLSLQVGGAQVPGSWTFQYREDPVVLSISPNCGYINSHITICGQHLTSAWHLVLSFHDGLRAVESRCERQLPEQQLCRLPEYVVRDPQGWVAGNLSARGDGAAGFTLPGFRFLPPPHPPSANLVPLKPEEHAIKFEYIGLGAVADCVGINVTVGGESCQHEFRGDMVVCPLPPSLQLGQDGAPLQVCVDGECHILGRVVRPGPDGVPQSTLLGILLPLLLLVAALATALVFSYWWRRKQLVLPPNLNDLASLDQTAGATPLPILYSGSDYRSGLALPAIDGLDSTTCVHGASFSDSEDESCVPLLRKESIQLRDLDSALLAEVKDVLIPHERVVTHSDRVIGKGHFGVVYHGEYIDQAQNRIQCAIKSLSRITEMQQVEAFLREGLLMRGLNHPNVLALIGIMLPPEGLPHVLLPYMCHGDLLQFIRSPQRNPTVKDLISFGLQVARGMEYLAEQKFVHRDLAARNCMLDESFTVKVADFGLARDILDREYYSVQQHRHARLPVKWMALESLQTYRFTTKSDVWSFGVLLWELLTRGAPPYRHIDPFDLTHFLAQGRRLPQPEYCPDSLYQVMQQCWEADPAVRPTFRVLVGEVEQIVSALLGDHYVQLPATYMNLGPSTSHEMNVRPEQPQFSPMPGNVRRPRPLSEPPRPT

COc1cc2c(Oc3ccc(NC(=O)c4c5c(cn(-c6ccc(F)cc6)c4=O)CCO5)cc3F)ccnc2cc1NCCCN1CCOCC1 [Example 188, N-(3-Fluoro-4-((6-methoxy-7-((3-morpholinopropyl)amino)quinolin-4-yl)oxy)phenyl)-5-(4-fluorophenyl)-6-oxo-2,3,5,6-tetrahydrofuro[3,2-c]pyridine-7-carboxamide]
cytotoxicity at 1 µM ([1]; Homo sapiens, 1 μM, 48 hours, trypan blue, n=2, read-out: Cell death (%) Cancer cell line KM12C): 25.4%
cytotoxicity at 5 µM ([1]; Homo sapiens, 5 μM, 48 hours, trypan blue, n=2, read-out: Cell death (%) Cancer cell line KM12C): 57.3%
cell-killing effect (in words) ([1]; as compared with the positive control): high cell-killing effect
IC50 (RON tyrosine kinase): 3.23 nM
cell-killing effect (in words) ([2]; HT29, as compared with the positive control): high cell-killing effect
cytotoxicity at 1 µM ([2]; Homo sapiens, HT-29, 1 μM, 48 hours, trypan blue, n=2, read-out: Cell death (%) Cancer cell line HT29): 28.7%
cytotoxicity at 5 µM ([2]; Homo sapiens, HT-29, 5 μM, 48 hours, trypan blue, n=2, read-out: Cell death (%) Cancer cell line HT29): 94.4%
cytotoxicity at 1 µM ([3]; Homo sapiens, SW-620, 1 μM, 48 hours, trypan blue, n=2, read-out: Cell death (%) Cancer cell line SW620): 26.9%
cytotoxicity at 5 µM ([3]; Homo sapiens, SW-620, 5 μM, 48 hours, trypan blue, n=2, read-out: Cell death (%) Cancer cell line SW620): 31.6%
cell-killing effect (in words) ([3]; SW620, as compared with the positive control): high cell-killing effect
IC50 [4]: 8 nM
